Reference: PubChem BioAssay AID248 (DTP/NCI, 2004)
Toxic doses and inconclusive results are not listed. Cut-off read from the data, not from the text of the source: active = T/C of 150% or more; inactive = T/C below 125%.

Test system: L1210 leukemia ip in BDF1 mice, survival T/C
Assay: NCI In Vivo Anticancer Drug Screen. Data for tumor model L1210 Leukemia (intraperitoneal) in B6D2F1 (BDF1) mice
Conditions: higher = longer survival
Method in brief: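 Transplantable tumor model; survival measured in treated vs vehicle control mice. Value = treated/control.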

[1] = endpoint: mean survival time, dose: 100.0 mg/kg/injection, schedule: Q04DX003 (ip), vehicle: saline
[2] = endpoint: mean survival time, dose: 200.0 mg/kg/injection, schedule: Q04DX003 (ip), vehicle: saline
[3] = endpoint: mean survival time, dose: 200.0 mg/kg/injection, schedule: Q04DX003 (ip), vehicle: saline with Tween-80
[4] = endpoint: mean survival time, dose: 100.0 mg/kg/injection, schedule: Q04DX003 (ip), vehicle: Klucel (hydroxypropylcellulose) (HPC)
[5] = endpoint: mean survival time, dose: 200.0 mg/kg/injection, schedule: Q04DX003 (ip), vehicle: Klucel (hydroxypropylcellulose) (HPC)
[6] = endpoint: mean survival time, dose: 400.0 mg/kg/injection, schedule: Q04DX003 (ip), vehicle: Klucel (hydroxypropylcellulose) (HPC)
[7] = endpoint: mean survival time, dose: 100.0 mg/kg/injection, schedule: Q01DX009 (ip), vehicle: saline
[8] = endpoint: mean survival time, dose: 200.0 mg/kg/injection, schedule: Q01DX009 (ip), vehicle: saline
[9] = endpoint: mean survival time, dose: 400.0 mg/kg/injection, schedule: Q01DX009 (ip), vehicle: saline
[10] = endpoint: mean survival time, dose: 100.0 mg/kg/injection, schedule: Q04DX002 (ip), vehicle: saline with Tween-80
[11] = endpoint: mean survival time, dose: 200.0 mg/kg/injection, schedule: Q04DX002 (ip), vehicle: saline with Tween-80
[12] = endpoint: mean survival time, dose: 400.0 mg/kg/injection, schedule: Q04DX002 (ip), vehicle: saline with Tween-80
[13] = endpoint: mean survival time, dose: 100.0 mg/kg/injection, schedule: Q04DX002 (ip), vehicle: Klucel (hydroxypropylcellulose) (HPC)
[14] = endpoint: mean survival time, dose: 200.0 mg/kg/injection, schedule: Q04DX002 (ip), vehicle: Klucel (hydroxypropylcellulose) (HPC)
[15] = endpoint: mean survival time, dose: 400.0 mg/kg/injection, schedule: Q04DX002 (ip), vehicle: Klucel (hydroxypropylcellulose) (HPC)
[16] = endpoint: mean survival time, dose: 100.0 mg/kg/injection, schedule: Q01DX001 (ip), vehicle: saline
[17] = endpoint: mean survival time, dose: 200.0 mg/kg/injection, schedule: Q01DX001 (ip), vehicle: saline
[18] = endpoint: mean survival time, dose: 400.0 mg/kg/injection, schedule: Q01DX001 (ip), vehicle: saline

Measured: T/C

O=c1[nH]ncc2c1[nH]c1cccc(Cl)c12
inactive: endpoint: mean survival time, dose: 200.0 mg/kg/injection, schedule: Q04DX003 (ip), vehicle: carboxymethylcellulose (CMC) 88 % of control | endpoint: mean survival time, dose: 400.0 mg/kg/injection, schedule: Q04DX003 (ip), vehicle: carboxymethylcellulose (CMC) 92 % of control

O=C1NCCN1c1ccccn1
inactive: [1] 100 % of control | [2] 97 % of control

O=C(O)c1cc([N+](=O)[O-])ccc1Nc1ccccc1
inactive: [3] 95 % of control

CC1CCC(C(C)C)C(NCc2cc(Br)cc(Br)c2O)C1 (stereo not drawn)
inactive: [4] 98 % of control | [5] 92 % of control | [6] 98 % of control

COc1cc(/C(C)=N/N=C(\C)c2ccc(O)c(OC)c2)ccc1O
inactive: [7] 94 % of control | [8] 90 % of control | [9] 90 % of control

O=CC(O)CO (stereo not drawn)
inactive: endpoint: mean survival time, dose: 62.5 mg/kg/injection, schedule: Q01DX009 (ip), vehicle: carboxymethylcellulose (CMC) 102 % of control | endpoint: mean survival time, dose: 108.0 mg/kg/injection, schedule: Q01DX Z (ip), vehicle: other 95 % of control | endpoint: mean survival time, dose: 125.0 mg/kg/injection, schedule: Q01DX001 (ip), vehicle: carboxymethylcellulose (CMC) 98 % of control | endpoint: mean survival time, dose: 125.0 mg/kg/injection, schedule: Q01DX009 (ip), vehicle: carboxymethylcellulose (CMC) 116 % of control | endpoint: mean survival time, dose: 180.0 mg/kg/injection, schedule: Q01DX Z (ip), vehicle: other 112 % of control | endpoint: mean survival time, dose: 250.0 mg/kg/injection, schedule: Q01DX001 (ip), vehicle: carboxymethylcellulose (CMC) 105 % of control | endpoint: mean survival time, dose: 250.0 mg/kg/injection, schedule: Q01DX009 (ip), vehicle: carboxymethylcellulose (CMC) 116 % of control | endpoint: mean survival time, dose: 300.0 mg/kg/injection, schedule: Q01DX Z (ip), vehicle: other 113 % of control | endpoint: mean survival time, dose: 500.0 mg/kg/injection, schedule: Q01DX001 (ip), vehicle: carboxymethylcellulose (CMC) 100 % of control | endpoint: mean survival time, dose: 500.0 mg/kg/injection, schedule: Q01DX009 (ip), vehicle: carboxymethylcellulose (CMC) 118 % of control | endpoint: mean survival time, dose: 500.0 mg/kg/injection, schedule: Q01DX Z (ip), vehicle: other 115 % of control | endpoint: mean survival time, dose: 833.0 mg/kg/injection, schedule: Q01DX Z (ip), vehicle: other 114 % of control | endpoint: mean survival time, dose: 1000.0 mg/kg/injection, schedule: Q01DX001 (ip), vehicle: carboxymethylcellulose (CMC) 110 % of control | endpoint: median survival time, dose: 352.0 mg/kg/injection, schedule: Q01DX005 (ip), vehicle: saline sonified 122 % of control | endpoint: median survival time, dose: 440.0 mg/kg/injection, schedule: Q01DX005 (ip), vehicle: other 118 % of control | endpoint: median survival time, dose: 440.0 mg/kg/injection, schedule: Q01DX005 (ip), vehicle: saline sonified 116 % of control | endpoint: median survival time, dose: 550.0 mg/kg/injection, schedule: Q01DX005 (ip), vehicle: saline sonified 122 % of control | endpoint: median survival time, dose: 688.0 mg/kg/injection, schedule: Q01DX005 (ip), vehicle: other 107 % of control | endpoint: median survival time, dose: 688.0 mg/kg/injection, schedule: Q01DX005 (ip), vehicle: saline sonified 111 % of control | endpoint: median survival time, dose: 860.0 mg/kg/injection, schedule: Q01DX005 (ip), vehicle: other 51 % of control | endpoint: median survival time, dose: 1053.0 mg/kg/injection, schedule: Q01DX001 (ip), vehicle: other 119 % of control | endpoint: median survival time, dose: 1053.0 mg/kg/injection, schedule: Q01DX001 (ip), vehicle: saline sonified 122 % of control | endpoint: median survival time, dose: 1170.0 mg/kg/injection, schedule: Q01DX001 (ip), vehicle: other 117 % of control | endpoint: median survival time, dose: 1170.0 mg/kg/injection, schedule: Q01DX001 (ip), vehicle: saline sonified 122 % of control | endpoint: median survival time, dose: 1300.0 mg/kg/injection, schedule: Q01DX001 (ip), vehicle: other 117 % of control | endpoint: median survival time, dose: 1300.0 mg/kg/injection, schedule: Q01DX001 (ip), vehicle: saline sonified 122 % of control | endpoint: median survival time, dose: 1444.0 mg/kg/injection, schedule: Q01DX001 (ip), vehicle: other 121 % of control | endpoint: median survival time, dose: 1444.0 mg/kg/injection, schedule: Q01DX001 (ip), vehicle: saline sonified 122 % of control | endpoint: median survival time, dose: 1604.0 mg/kg/injection, schedule: Q01DX001 (ip), vehicle: other 51 % of control | endpoint: median survival time, dose: 1782.0 mg/kg/injection, schedule: Q01DX001 (ip), vehicle: other 75 % of control

CC1CCOC(C)(CCl)O1 (stereo not drawn)
inactive: [10] 98 % of control | [11] 95 % of control | [12] 98 % of control

COC1OC(CCl)C(OS(=O)(=O)c2ccc(C)cc2)C(OS(=O)(=O)c2ccc(C)cc2)C1OS(=O)(=O)c1ccc(C)cc1 (stereo not drawn)
inactive: [13] 90 % of control | [14] 93 % of control | [15] 97 % of control

CC(C)c1ccccc1OC(=O)NC1CCCCC1
inactive: [13] 96 % of control | [14] 110 % of control | [15] 104 % of control

O=C(Nc1ccc(C(=O)O)cc1)Nc1cccc2ccccc12
inactive: [13] 113 % of control | [14] 93 % of control | [15] 97 % of control

NNC(=O)C1CCCCN1 (stereo not drawn)
inactive: endpoint: mean survival time, dose: 100.0 mg/kg/injection, schedule: Q01DX001 (ip), vehicle: water 98 % of control | endpoint: mean survival time, dose: 200.0 mg/kg/injection, schedule: Q01DX001 (ip), vehicle: water 100 % of control | endpoint: mean survival time, dose: 400.0 mg/kg/injection, schedule: Q01DX001 (ip), vehicle: water 104 % of control

CCC(C)SC1=NC(N)=NC2=NC=NC21 (stereo not drawn)
inactive: endpoint: mean survival time, dose: 50.0 mg/kg/injection, schedule: Q04DX003 (ip), vehicle: carboxymethylcellulose (CMC) 118 % of control | endpoint: mean survival time, dose: 100.0 mg/kg/injection, schedule: Q04DX003 (ip), vehicle: carboxymethylcellulose (CMC) 122 % of control

CCOC(=N)N1C(N)=NC(=O)C1c1ccccc1 (stereo not drawn)
inactive: [7] 105 % of control | [1] 110 % of control | [8] 110 % of control | [2] 103 % of control | [9] 96 % of control | endpoint: mean survival time, dose: 400.0 mg/kg/injection, schedule: Q04DX003 (ip), vehicle: saline 105 % of control

OCCN=Cc1ccccc1O.OCCN=Cc1ccccc1O.[Ni]
inactive: endpoint: mean survival time, dose: 75.0 mg/kg/injection, schedule: Q01DX001 (ip), vehicle: other 103 % of control | endpoint: mean survival time, dose: 150.0 mg/kg/injection, schedule: Q01DX001 (ip), vehicle: other 106 % of control

Nc1ncnc2nccnc12
inactive: endpoint: mean survival time, dose: 25.0 mg/kg/injection, schedule: Q01DX Z (ip), vehicle: saline 103 % of control | endpoint: mean survival time, dose: 75.0 mg/kg/injection, schedule: Q01DX Z (ip), vehicle: saline 89 % of control

O=S(=O)(CC(Cl)c1ccc(Cl)cc1)c1ccccc1 (stereo not drawn)
inactive: [16] 112 % of control | [17] 114 % of control | [18] 109 % of control

CCOC(=O)c1cnc(SC)nc1N/N=C/c1ccccc1
inactive: [4] 100 % of control | [5] 101 % of control | [6] 103 % of control

Cc1cccc(C)c1OC(=O)NC1CCCCC1
inactive: [13] 107 % of control | [14] 89 % of control | [15] 96 % of control

ClCCn1nc2c(c1-c1ccc(Cl)cc1)CCc1ccccc1-2
inactive: endpoint: mean survival time, dose: 100.0 mg/kg/injection, schedule: Q04DX003 (ip), vehicle: gum acacia 92 % of control | endpoint: mean survival time, dose: 200.0 mg/kg/injection, schedule: Q04DX003 (ip), vehicle: gum acacia 98 % of control | endpoint: mean survival time, dose: 400.0 mg/kg/injection, schedule: Q04DX003 (ip), vehicle: gum acacia 95 % of control

Br/C=C/c1ccccc1
inactive: [10] 94 % of control | [11] 97 % of control | [12] 100 % of control

CCOC(=O)C(=O)c1ccccc1
inactive: endpoint: mean survival time, dose: 100.0 mg/kg/injection, schedule: Q01DX009 (ip), vehicle: saline with Tween-80 100 % of control | endpoint: mean survival time, dose: 100.0 mg/kg/injection, schedule: Q04DX003 (ip), vehicle: saline with Tween-80 96 % of control | endpoint: mean survival time, dose: 200.0 mg/kg/injection, schedule: Q01DX009 (ip), vehicle: saline with Tween-80 103 % of control | [3] 103 % of control | endpoint: mean survival time, dose: 400.0 mg/kg/injection, schedule: Q01DX009 (ip), vehicle: saline with Tween-80 97 % of control | endpoint: mean survival time, dose: 400.0 mg/kg/injection, schedule: Q04DX003 (ip), vehicle: saline with Tween-80 103 % of control

c1ccc(N=C(c2ccccc2)c2ccccc2)cc1
inactive: endpoint: mean survival time, dose: 50.0 mg/kg/injection, schedule: Q01DX001 (ip), vehicle: saline 102 % of control | [16] 98 % of control | [17] 98 % of control | [18] 102 % of control
